Experimental data from ChEMBL document CHEMBL1201862, “PubChem BioAssay data set” (2004).
Active and inactive are the calls of the source. Cut-off read from the data, not from the text of the source, for most assays here: actives have a measured EC50 and inactives only a lower limit.

Experiments:
[1] = cells; type: functional
[2] = cytotoxicity toward NIH3T3 fibroblasts, dose response, counter-screen, cell-based, ATP luminescence, mouse fibroblasts (AID 2010); type: functional;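 note: cells exposed to compound for about 90 hours before reading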
[3] = inhibitors of intracellular T. cruzi replication, confirmation, NIH3T3 host cells, beta-gal luminescence (AID 2044); type: functional, cell-based;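 note: intracellular parasites grown in NIH/3T3 mouse fibroblasts as host cells; luminescent beta-galactosidase reporter signal from transgenic T. cruzi replicating inside host cells; inhibitors lower the luminescence signal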
[4] = inhibitors of firefly luciferase expression or activity, dose response, H4 neuroglioma cells, luminescence (AID 1990); type: functional, cell-based
[5] = Luminescence Cell-Based Dose Response HTS to Identify Inhibitors of 5'UTR Stem-Loop Driven Prion Protein mRNA Translation in H4 Neuroglioblastoma Cells. [Related pubchem assays: 1827 (Project Summary), 1813 (Primary HTS)]; type: functional
[6] = inhibitors of SNCA 5'UTR-driven reporter translation, confirmation, H4 neuroglioma cells, luminescence (AID 1988); type: functional, cell-based
[7] = HEp-2 cell cytotoxicity, dose response, cytotoxicity control for RSV inhibitor project, HTS (AID 2410); type: functional; conditions: human respiratory syncytial virus
[8] = target: T1, Heat shock factor protein 1 (Mus musculus, UniProt P38532); assay: HSF1 potentiators in luciferase reporter cells, confirmation, cell-based, NIH3T3, luminescence, dose retest (AID 435004); type: functional;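 note: stress induced by proteasome inhibitor MG132 added 30 min after compound; luciferase reporter driven by HSF1 response element in NIH3T3 cells; actives raise luminescence as potentiators of the MG132 stress response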
T1 sequence (P38532 whole entry): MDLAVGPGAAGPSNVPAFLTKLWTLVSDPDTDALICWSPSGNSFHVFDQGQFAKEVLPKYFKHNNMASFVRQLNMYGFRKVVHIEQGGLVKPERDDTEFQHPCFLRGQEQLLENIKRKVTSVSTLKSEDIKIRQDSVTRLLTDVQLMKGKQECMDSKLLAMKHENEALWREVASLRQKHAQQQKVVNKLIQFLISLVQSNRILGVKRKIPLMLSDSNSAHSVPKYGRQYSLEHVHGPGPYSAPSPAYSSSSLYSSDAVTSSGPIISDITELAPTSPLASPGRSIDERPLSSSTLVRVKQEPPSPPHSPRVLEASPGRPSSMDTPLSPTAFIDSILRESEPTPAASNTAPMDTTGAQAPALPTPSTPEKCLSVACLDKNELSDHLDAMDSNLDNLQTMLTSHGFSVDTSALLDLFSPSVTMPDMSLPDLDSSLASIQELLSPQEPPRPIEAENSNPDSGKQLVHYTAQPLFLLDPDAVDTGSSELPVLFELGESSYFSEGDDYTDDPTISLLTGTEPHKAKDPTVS

[9] = Luminescence Cell-Based Dose Retest to Confirm Inhibitors of Cancer Stem Cells. [Related pubchem assays (depositor defined):AID2717, AID2721]; type: functional; conditions: Homo sapiens
[10] = system: Streptococcus sp. 'group A'; assay: growth inhibition of control SK(-) GAS strain, dose response, counter-screen for streptokinase expression inhibitor project, luminescence, kanamycin, BacTiterGlo, confirmation (AID 1900); type: functional, organism-based
[11] = system: Streptococcus; assay: Group A Streptococcus viability loss, dose response, counter-screen for streptokinase expression inhibitor project, luminescence, BacTiterGlo (AID 1915); type: functional, organism-based;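 note: potency for reduction of bacterial viability or growth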
[12] = target: Luciferin 4-monooxygenase (Photinus pyralis, UniProt P08659); assay: firefly luciferase enzyme inhibitors, dose response, biochemical, luminescence (AID 1891)
Chain of Luciferin 4-monooxygenase (P08659 whole entry): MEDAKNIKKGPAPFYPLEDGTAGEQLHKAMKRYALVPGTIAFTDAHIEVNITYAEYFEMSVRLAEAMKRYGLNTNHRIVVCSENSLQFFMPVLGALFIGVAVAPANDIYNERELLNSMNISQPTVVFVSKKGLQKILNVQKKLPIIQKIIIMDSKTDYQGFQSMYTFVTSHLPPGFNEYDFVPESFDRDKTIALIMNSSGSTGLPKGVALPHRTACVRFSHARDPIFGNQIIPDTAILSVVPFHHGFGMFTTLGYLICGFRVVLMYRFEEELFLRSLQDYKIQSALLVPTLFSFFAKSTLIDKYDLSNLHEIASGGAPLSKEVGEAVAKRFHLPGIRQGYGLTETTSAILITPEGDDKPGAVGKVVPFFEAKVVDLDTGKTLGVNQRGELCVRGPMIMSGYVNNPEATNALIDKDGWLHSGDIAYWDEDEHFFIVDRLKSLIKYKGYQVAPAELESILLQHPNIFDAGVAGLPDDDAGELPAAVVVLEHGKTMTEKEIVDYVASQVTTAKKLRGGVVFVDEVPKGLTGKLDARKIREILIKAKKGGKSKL

[13] = Luminescence Cell-Based Dose Confirmation HTS to Identify Inhibitors of Platelet Dense Granule Release. [Related pubchem assays: 1663 (Primary HTS), 1678 (Summary of Project)]; type: functional
[14] = cells; type: functional, cell-based
[15] = cells; type: functional, cell-based; remark: listed apart in the source
[16] = target: Cytochrome P450 2C9 (Homo sapiens, UniProt P11712)
Chain of Cytochrome P450 2C9 (P11712 whole entry): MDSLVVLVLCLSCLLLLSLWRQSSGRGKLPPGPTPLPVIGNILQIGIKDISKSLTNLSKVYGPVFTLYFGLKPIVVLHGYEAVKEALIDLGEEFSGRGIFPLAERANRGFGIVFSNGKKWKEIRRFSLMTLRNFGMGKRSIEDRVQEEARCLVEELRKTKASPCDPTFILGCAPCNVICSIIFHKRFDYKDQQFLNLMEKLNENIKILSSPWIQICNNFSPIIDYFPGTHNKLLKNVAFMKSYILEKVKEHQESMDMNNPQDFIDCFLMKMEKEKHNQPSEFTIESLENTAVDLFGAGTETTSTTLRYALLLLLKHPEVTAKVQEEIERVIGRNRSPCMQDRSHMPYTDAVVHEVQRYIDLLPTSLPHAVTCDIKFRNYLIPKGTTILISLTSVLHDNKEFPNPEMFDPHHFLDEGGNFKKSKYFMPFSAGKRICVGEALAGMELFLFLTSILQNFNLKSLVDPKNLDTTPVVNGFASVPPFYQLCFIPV

[17] = target: T1, Heat shock factor protein 1; assay: inhibition of MG132-induced HSE-luciferase signal, confirmation, cell-based, NIH3T3, luminescence, dose retest (AID 2382); type: functional;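 note: NIH3T3 fibroblasts with HSF1-driven luciferase reporter stressed by proteasome inhibitor MG132; luminescence from HSF1-driven luciferase expression after 8 hours of MG132 stress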
[18] = NIH-3T3 fibroblast cytotoxicity, dose response, cytotoxicity control, cell-based, fluorescence, Alamar Blue, secondary assay (AID 2327); type: functional;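 note: NIH-3T3 mouse fibroblasts cultured with fluconazole at 8 µg/mL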
[19] = system: INS1; assay: beta cell apoptosis inhibitors, cytokine rescue, dose response, luminescence, retest (AID 449756); type: functional, cell-based; conditions: Rattus norvegicus;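 note: cell death triggered by IL-1 beta plus TNF-alpha plus IFN-gamma mixture; protective hits raise ATP signal compared with cytokine alone wells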
[20] = inhibitors of clade B AD8 Env fusion, dose response, cell-based, cherry-pick (AID 652062); type: functional;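 note: luciferase signal from cell-cell fusion driven by HIV-1 clade B AD8 Env; potency is for inhibitors of fusion seen as a drop in luminescence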
[21] = ZM109 Env clade C HIV-1 fusion inhibitors, dose response, HeLa effector, CEM target cells, luciferase, cherry-pick (AID 652058); type: functional, cell-based
[22] = target: Paired box protein Pax-8 (Homo sapiens, UniProt Q06710); assay: inhibitors of PAX8-driven TPO luciferase reporter, dose response, RMG-I cells, cherry-pick (AID 687027); type: functional, cell-based;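 note: luciferase reporter driven by Pax8 target thyroperoxidase promoter measured by SteadyGlo luminescence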
Chain of Paired box protein Pax-8 (Q06710 whole entry, the tested form may be a part): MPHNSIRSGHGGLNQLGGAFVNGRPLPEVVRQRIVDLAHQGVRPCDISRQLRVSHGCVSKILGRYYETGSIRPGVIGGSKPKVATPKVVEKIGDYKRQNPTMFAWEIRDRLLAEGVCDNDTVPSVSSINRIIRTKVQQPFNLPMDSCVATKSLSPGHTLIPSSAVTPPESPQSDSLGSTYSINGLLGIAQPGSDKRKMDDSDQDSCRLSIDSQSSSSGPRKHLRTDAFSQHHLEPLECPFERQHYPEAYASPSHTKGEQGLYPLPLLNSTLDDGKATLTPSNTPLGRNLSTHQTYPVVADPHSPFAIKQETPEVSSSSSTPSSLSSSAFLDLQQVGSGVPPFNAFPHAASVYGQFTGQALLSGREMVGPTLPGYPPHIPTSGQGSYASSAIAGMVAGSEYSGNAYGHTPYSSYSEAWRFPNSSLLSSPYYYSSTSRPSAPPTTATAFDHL

[23] = inhibitors of HIV Env-driven cell fusion, dose response, cherry-pick (AID 652057); type: functional, cell-based
[24] = target: T2, Cytochrome P450 1A2 (Homo sapiens, UniProt P05177);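 note: PubChem cytochrome P450 panel assay, CYP1A2 panel member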
T2 sequence (P05177 whole entry): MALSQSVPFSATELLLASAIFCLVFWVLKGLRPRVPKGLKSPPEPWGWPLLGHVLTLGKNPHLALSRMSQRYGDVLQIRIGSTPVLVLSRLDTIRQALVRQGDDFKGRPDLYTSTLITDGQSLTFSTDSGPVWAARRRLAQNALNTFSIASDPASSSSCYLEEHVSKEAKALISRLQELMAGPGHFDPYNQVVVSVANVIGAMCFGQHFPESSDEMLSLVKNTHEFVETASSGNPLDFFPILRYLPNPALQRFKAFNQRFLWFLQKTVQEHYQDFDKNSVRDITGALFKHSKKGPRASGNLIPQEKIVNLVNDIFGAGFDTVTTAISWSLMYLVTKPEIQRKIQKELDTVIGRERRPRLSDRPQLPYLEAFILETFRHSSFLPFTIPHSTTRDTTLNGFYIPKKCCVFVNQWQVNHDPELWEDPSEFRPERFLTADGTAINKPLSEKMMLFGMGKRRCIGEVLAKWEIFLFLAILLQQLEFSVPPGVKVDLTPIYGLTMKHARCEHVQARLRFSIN

## Cc1ccc(OCC(=O)OCc2c(C)noc2C)cc1C
[1]
  IC50: 22.7 µM (active)

## CC(C)(C)NCC1(CO)SC(N)=NC1=O (stereo not given)
[2]
  EC50: > 30 µM (not active)
[1]
  IC50: 16.4 µM (active)
[3]
  EC50: 3.82 µM (active)

## COc1ccc(-c2nn(-c3ccccc3)cc2/C=C/C(=O)NCCCn2ccnc2)cc1OC
[4]
  EC50: > 120 µM (not active)
[5]
  EC50: > 120 µM (not active)
[6]
  EC50: > 60 µM (not active)

## Cc1ccc(C(=O)Nc2nc(C(C)(C)C)cs2)s1
[7]
  CC50: 3.25 µM (active)

## CCCN(CCC)C(S)=NC1CC2C=CC1C2 (stereo not given)
[8]
  EC50: > 260 µM (inactive)

## O=C(Oc1ccccc1Cl)c1ccc2c(=O)n3c(nc2c1)CCC3
[1]
  IC50: 5.48 µM (active)

## C[C@@H]1CN([C@H](C)CO)C(=O)Cc2cc(NS(=O)(=O)c3ccc(Cl)cc3)ccc2O[C@H]1CN(C)Cc1ccc(C(F)(F)F)cc1
[9]
  AC50: 3.11 µM (active)

## CCOc1ccc(C(=O)Nc2ccc(S(=O)(=O)N3C[C@@H]4C[C@@H](C3)c3cccc(=O)n3C4)cc2)cc1
[7]
  CC50: 23.7 µM (active)

## O=C(NCc1ccc(F)cc1)C(=O)Nc1nc(C23CC4CC(CC(C4)C2)C3)cs1
[10]
  EC50: 0.823 µM (active)
[9]
  AC50: 1.91 µM (active)
[11]
  EC50: 2.55 µM (active)

## O=C(CSc1nnc(-c2c[nH]c3ccccc23)n1-c1ccc(F)cc1)NCc1ccco1
[8]
  EC50: 40.4 µM (active)

## CN(C)c1ccc(/C=C2\CCC/C(=C\c3ccccc3)C2=O)cc1
[9]
  AC50: 3.81 µM (active)

## COc1ccc(CCNC(=O)c2coc(=O)c(Br)c2)cc1
[9]
  AC50: 7.39 µM (active)

## Cc1nnc(N2CCC(C(=O)N3CCCCCC3)CC2)c2nn(-c3ccc(Cl)cc3)c(C)c12
[7]
  CC50: 21.9 µM (active)

## CC(=O)N1c2ccc(S(=O)(=O)N3CCCCC3)cc2CC1C(=O)Nc1ccccc1C(F)(F)F (stereo not given)
[12]
  EC50: > 112 µM (not active)
[13]
  EC50: > 112 µM (not active)

## CCOC(=O)CC(=O)CSCC(=O)Nc1ccc(C)cc1
[8]
  EC50: > 260 µM (inactive)

## COc1ccccc1N(CC(=O)NC1CCCCC1)S(C)(=O)=O
[14]
  EC50: > 350 µM (not active)
[15]
  EC50: > 350 µM (not active)

## CN(CC(=O)Nc1cccc(F)c1)C(=O)c1ccc(-c2ccc(Cl)cc2)o1
[7]
  CC50: 23.1 µM (active)

## Cc1ccccc1CSc1nsc(N)n1
[16]
  AC50: 2 µM (inconclusive)
[8]
  EC50: > 260 µM (inactive)

## Cc1sc2ncnc(SCC(=O)N3CCCC3)c2c1C
[12]
  EC50: > 112 µM (not active)
[13]
  EC50: > 112 µM (not active)

## O=C1C(=O)c2ccccc2C(O)=C1c1cccc([N+](=O)[O-])c1
[14]
  EC50: > 350 µM (not active)
[7]
  CC50: 14.2 µM (active)
[15]
  EC50: 56.5 µM (active)

## CCOC(=O)c1cc2nc(-c3ccco3)cc(C(F)(F)F)n2n1
[17]
  EC50: > 195 µM (not active)
[12]
  EC50: > 112 µM (not active)
[13]
  EC50: > 112 µM (not active)

## CC1=C(C(=O)OC2CCCC2)C(c2coc3ccccc3c2=O)C2=C(O)CC(C)(C)CC2=N1 (stereo not given)
[9]
  AC50: 97.3 µM (active)

## O=C(CN1CCN(S(=O)(=O)c2ccc3ccccc3c2)CC1)N1CCc2ccccc2C1
[4]
  EC50: 14.4 µM (active)
[5]
  EC50: 23 µM (active)
[6]
  EC50: > 120 µM (not active)
[7]
  CC50: 25.3 µM (active)

## COc1cccc(-c2cn3nc(C)c(C)nc3n2)c1
[12]
  EC50: 19.7 µM (active)
[13]
  EC50: 6.72 µM (active)

## CCOC(=O)c1c(C)oc2ccc(NS(=O)(=O)c3ccc4c5c(cccc35)C(=O)N4)cc12
[7]
  CC50: 7.08 µM (active)

## O=C(Nc1cccc(Cl)c1)Nc1ccccc1C(=O)O
[12]
  EC50: 0.654 µM (active)
[13]
  EC50: 11.4 µM (active)

## O=C(CSC1CS(=O)(=O)c2cc([N+](=O)[O-])ccc21)NNC(=O)c1ccc(Cl)cc1 (stereo not given)
[8]
  EC50: > 260 µM (inactive)

## CCOC(=O)COc1c(-c2ccc(OC)cc2)oc2ccccc2c1=O
[1]
  IC50: 5.55 µM (active)

## O=C(O)c1ccccc1OC(C(=O)Nc1cc(Cl)cc(Cl)c1)c1ccccc1 (stereo not given)
[8]
  EC50: > 260 µM (inactive)

## O=C(NN1C(=O)NC2(CCCCC2)C1=O)c1ccc(-c2ccc(Cl)cc2)o1
[7]
  CC50: 22.3 µM (active)

## CCOC(=O)c1c(S(=O)(=O)NCc2ccc(C)o2)c(C)n(C)c1C
[14]
  EC50: > 350 µM (not active)
[15]
  EC50: > 350 µM (not active)

## COc1ccc(C(=O)NNc2ccccc2)cc1OC
[18]
  EC50: 7.89 µM (active)
[9]
  AC50: 0.825 µM (active)

## CCc1ccc(-n2c(S)nnc2Cc2ccccc2)cc1
[12]
  EC50: > 112 µM (not active)
[13]
  EC50: > 112 µM (not active)

## O=C(CSC1=N/C(=C/c2ccc(Cl)c(Cl)c2)C(=O)N1c1ccccc1F)NC1CC1
[7]
  CC50: 24 µM (active)

## Cc1cc(SCC(=O)c2cccs2)n2nc(C)c(-c3ccc(Cl)cc3)c2n1
[9]
  AC50: 18.1 µM (active)

## Cc1cccc2nc(CSc3nc4nncc-4c(O)n3-c3cccc(Cl)c3)cc(=O)n12
[19]
  AC50: 8.23 µM (active)

## CN(CC(=O)Nc1ccccc1Cl)CC(=O)Nc1c(F)cccc1F
[8]
  EC50: > 260 µM (inactive)

## O=C(NCC1COc2ccccc2O1)c1cccc(S(=O)(=O)NCc2ccccc2)c1 (stereo not given)
[19]
  AC50: 8.07 µM (active)

## NC(=O)c1cc2cc(Br)ccc2o/c1=N\Cc1ccccc1
[8]
  EC50: > 260 µM (inactive)

## C[C@H](CO)N1C[C@H](C)[C@@H](CN(C)C(=O)NC2CCCCC2)Oc2c(cccc2N(C)C)C1=O
[20]
  AC50: 0.558 µM (active)
[21]
  AC50: 36.3 µM (active)

## COc1ccc(S(=O)(=O)Nc2ccc3c(c2)C(=O)N([C@H](C)CO)C[C@H](C)[C@@H](CN(C)Cc2ccc(C(F)(F)F)cc2)OCCCC[C@H](C)O3)cc1
[22]
  AC50: 18.9 µM (active)

## CN1C(=O)c2cc(NC(=O)c3cscn3)ccc2OC[C@@H]2O[C@H](CC(=O)NCc3ccc(Cl)c(Cl)c3)CC[C@H]21
[20]
  AC50: 40.6 µM (active)
[23]
  AC50: 21 µM (active)
[21]
  AC50: 6.62 µM (active)

## C[C@H]1CN([C@@H](C)CO)C(=O)Cc2cc(NC(=O)Nc3cccc4ccccc34)ccc2O[C@H]1CN(C)S(=O)(=O)c1ccc(F)cc1
[20]
  AC50: 6.07 µM (active)
[23]
  AC50: 3.46 µM (active)
[21]
  AC50: 7.77 µM (active)

## CC1(C)CC2CC(C)(CN2/C=N/c2sc3c(c2C#N)CC(C)(C)NC3(C)C)C1 (stereo not given)
[9]
  AC50: 1.04 µM (active)

## CN(C)c1ccc(/C=N/Nc2nncc3ccccc23)cc1
[12]
  EC50: 1.11 µM (active)
[13]
  EC50: 2.37 µM (active)

## CCO/C(O)=C1\C(C)=Nc2ncnn2C1c1ccc2c(c1)OCO2 (stereo not given)
[8]
  EC50: > 260 µM (inactive)

## CCCCc1ccc(/C(C)=N/Nc2cc(N3CCOCC3)nc(C)n2)cc1
[9]
  AC50: 3.08 µM (active)
[2]
  EC50: > 60 µM (not active)
[3]
  EC50: 2.06 µM (active)

## CNc1c2c(nn1C)CCCC2 [TETRYDAMINE]
[14]
  EC50: > 350 µM (not active)
[24]
  AC50: 39.8 µM (inconclusive)
[15]
  EC50: > 350 µM (not active)
